{"source": "patent US8791269B2", "about": "“Complex of amorphous tomoxiprole and cyclodextrin with fast dissolution rate and process for the preparation thereof” (Fondazione Istituto Insubrico di Ricerca per la Vita, priority 2011, dated 2014)", "key": {"[1]": {"assay": "Surface wettability (water contact angle)", "type": "physicochemical", "conditions": "at any pH"}, "[2]": {"conditions": "active doses; cited from earlier work"}, "[3]": {"conditions": "orally administered; cited from earlier work"}, "[4]": {"assay": "Dissolution rate in buffer solution HCl-KCl pH 1.5", "type": "physicochemical", "conditions": "for Substance dissolved (concentration of tomoxiprole): buffer HCl-KCl pH 1.5", "method": "The dissolution rate of the complex tomoxiprole-2-hydroxypropyl-beta-cyclodextrin obtained in Example 1 is determined by the following method.\nIn a flask provided with magnetic mixer 600 mg of tomoxiprole-2-hydroxypropyl-beta-cyclodextrin complex (corresponding to 100 mg of tomoxiprole) are added to 10 ml of a buffer solution HCl—KCl pH 1.5. Samples of the suspension are collected at intervals of time, clarified by centrifugation and the tomoxiprole concentration in the clear supernatant is determined by UV absorption at 328 nm.\nThe method was the same of that described above, with the exception that 100 mg of tomoxiprole were added instead of 600 mg of complex tomoxiprole/HPBCD"}, "in vivo": {"assay": "in vivo", "conditions": "rat, po, 5 mg/kg", "method": "To assess whether the faster dissolution rate observed for the complex actually corresponds to a faster in vivo absorption, the pharmacokinetic behaviour of tomoxiprole (TMX) and tomoxiprole-2-hydroxypropyl-beta-cyclodextrin complex (TMX/HPBCD) in rats have been compared.\nExperimental design: Two groups of four rats each have been used. To the rats of each group was orally given either a dose of 5 mg/Kg of tomoxiprole or a dose of complex tomoxiprole-2-hydroxypropyl-beta-ciclodestrin corresponding to 5 mg/Kg of active substance. […] Samples of blood were collected at 0.3, 0.6, 1, 1.5, 2 and 6 hours, and plasma separated by centrifugation. Sample processing and HPLC analyses were performed as previously described (A. Bernareggi et al. J. liquid chromatography 1984, 7, 2093-2101). The pharmacokinetic parameters calculated from the plasma levels of tomoxiprole observed with the two formulations are reported in the following Table 2"}}}
{"smiles": "COc1ccc(-c2nc3c4ccccc4ccc3n2C(C)C)cc1", "note": "[Tomoxiprole crystals, 2-(4-methoxyphenyl)-3-(1-methylethyl)-3H-naphth[1,2-d] imidazole]", "values": [{"measurement": "Water contact angle", "setting": "[1]", "value": 81, "unit": "°"}, {"measurement": "Ulcerogenic activity", "setting": "[2]", "value": "devoid of ulcerogenic activity"}, {"measurement": "Time of maximum concentration in the blood after administration", "setting": "[3]", "value": "over one hour"}, {"measurement": "Time at which the saturation concentration is reached", "setting": "[4]; buffer pH 1.5", "value": "over 8 min"}, {"measurement": "Substance dissolved (concentration of tomoxiprole)", "setting": "[4]; time 0.5 min", "value": 1, "unit": "mg/mL"}, {"measurement": "Substance dissolved (concentration of tomoxiprole)", "setting": "[4]; time 2 min", "value": 3, "unit": "mg/mL"}, {"measurement": "Substance dissolved (concentration of tomoxiprole)", "setting": "[4]; time 4 min", "value": 4, "unit": "mg/mL"}, {"measurement": "Substance dissolved (concentration of tomoxiprole)", "setting": "[4]; time 8 min", "value": 4.9, "unit": "mg/mL"}, {"measurement": "Substance dissolved (concentration of tomoxiprole)", "setting": "[4]; time 12 min", "value": 5.2, "unit": "mg/mL"}, {"measurement": "AUC", "setting": "in vivo", "value": 46, "unit": "ng·h/mL"}, {"measurement": "AUC(0-t)", "setting": "in vivo", "value": 1170, "unit": "ng·h/mL"}, {"measurement": "Cmax", "setting": "in vivo", "value": 220, "unit": "ng/mL"}, {"measurement": "Tmax", "setting": "in vivo", "value": 1.5, "unit": "h"}]}
